{
  "source": "patent US9623031B2",
  "about": "“Compositions, methods and kits for treating cancer” (priority 2011, dated 2017)",
  "key": {"NF-κB": {"test_system": "NF-κB", "assay": "NF-κB activation in sorted BCR-ABL+ LSCs (EMSA, Western blot)", "assay_type": "cell-based, mouse", "settings": "25 nM, 0-6 h", "protocol": "The effect of Δ^12-PGJ3 on NF-κB and PPAPγ was examined. RAW264.7 macrophages were pretreated with DMSO, Δ^12-PGJ3 at 0.25, or 1.0 μM and subsequently stimulated with 100 ng/mL E. coli LPS for 4 h. The nuclear extracts were prepared and the binding of NΦκB to a ^32P-labeled consensus double stranded oligonucleotide probe was examined using gel shift analysis. NS=non-specific band. Lanes 1-5 represent untreated, LPS alone, DMSO+LPS, Δ^12-PGJ3 (0.25 μM)+LPS, and Δ^12-PGJ3 (1 μM)+LPS, respectively. BCR-ABL LSCs were sorted from spleens, plated, and treated with PBS, 25 nM Δ^12-PGJ3, or 9,10-dihydro 15d-PGJ2 for 0, 2 or 6 h. The cells were harvested and nuclear extracts were prepared using standard techniques. Ten μg of nuclear protein was used from each sample for the gel-shift reaction. As a positive control for NF-κB, nuclear extract from LPS-treated murine (RAW264.7) macrophages was used. Anti-p50 Ab was used with this positive control for a supershift, and excess ‘cold’ probe was used with the positive control as a ‘cold competitor’. A Western blot analysis was performed of the above-mentioned nuclear extracts from BCR-ABL LSCs treated with PBS, Δ^12-PGJ3 or 9,10-dihydro-15d-PGJ2 for various time periods (0-6 h) probed with anti-p65 and anti-β-actin antibodies. […]"}, "[1]": {"test_system": "blast crisis CML cells from a patient (#011711)", "assay": "Blast crisis CML patient cells: cytospin and annexin V apoptosis", "assay_type": "cell-based, human", "protocol": "An experiment involving a cytospin of Blast crisis CML (011711) and Geimsa stain was performed. Blast crisis CML were cultured in IMDM with BIT, LDL, L-Glu and treated with PBS or 100 nM Δ^12-PGJ3 for 12 hrs. Cells were collected and slides were done by Cytospin. Cytospin slides were stained with Wright Geimsa stain and pictures (100×) were recorded on a Material microscope.\nIn this experiment, 110,000/well primary AML cells were cultured in above specified media for 6 and 12 hrs. Cells were collected and washed once with ice cold PBS. The cells were resuspended in 200 ul 1× Apoptosis buffer with annexin-V PE to all tubes. The cells were washed in PBS and resuspended in 600 ul PBS and transfer into flow tubes and analyzed for apoptosis (Annexin V+ cells) on FC-500. […] In this experiment, 110,000/well AML cells were cultured in earlier mentioned media for 6 and 12 hrs. Cells were collected and washed once in PBS and resuspended in 200 ul PBS and blocked with FC receptor antibody 10 mins RT. The following antibodies were added: CD38, CD123, CD34, CD117 (BD bioscience) for 1 hr on ice. Cells were washed in PBS once and resuspended in 200 ul of apoptotic buffer, and annexin V was added and incubated for 15 mins. Apoptotic cells (Annexin V+ cells) were counted by flow cytometry. […] Apoptotic cells (Annexin V+ cells) were counted by flow cytometry."}, "MCL-1": {"test_system": "MCL-1", "assay": "MCL-1 expression in primary AML cells (real time PCR)", "assay_type": "cell-based, human", "protocol": "MCL-1 expression in Δ^12-PGJ3 treated AML was examined. MCL-1 is an antiapoptotic gene that belongs to the Bcl-2 family. Total RNA and cDNA were isolated from primary AML cells as indicated above. MCl-1 expression was measured using real time PCR. (Hs01050896-ml, Applied Biosystems)."}, "[2]": {"test_system": "primary human AML cells; LSCs (CD34+CD38−CD123+)", "assay": "Apoptosis of primary human AML cells and AML LSCs (annexin V)", "assay_type": "cell-based", "protocol": "In this experiment, 110,000/well primary AML cells were cultured in above specified media for 6 and 12 hrs. Cells were collected and washed once with ice cold PBS. The cells were resuspended in 200 ul 1× Apoptosis buffer with annexin-V PE to all tubes. The cells were washed in PBS and resuspended in 600 ul PBS and transfer into flow tubes and analyzed for apoptosis (Annexin V+ cells) on FC-500. […] In this experiment, 110,000/well AML cells were cultured in earlier mentioned media for 6 and 12 hrs. Cells were collected and washed once in PBS and resuspended in 200 ul PBS and blocked with FC receptor antibody 10 mins RT. The following antibodies were added: CD38, CD123, CD34, CD117 (BD bioscience) for 1 hr on ice. Cells were washed in PBS once and resuspended in 200 ul of apoptotic buffer, and annexin V was added and incubated for 15 mins. Apoptotic cells (Annexin V+ cells) were counted by flow cytometry. […] Cells were collected and washed once in PBS and resuspended in 200 ul PBS and blocked with FC receptor antibody 10 mins RT. The following antibodies were added: CD38, CD123, CD34 (BD bioscience) for 1 hr on ice. Cells were washed in PBS once and resuspended in 200 ul of apoptotic buffer, and annexin V was added and incubated for 15 mins. Apoptotic cells (Annexin V+ cells) were counted by flow cytometry.\nReferring to the results shown in FIG. 16, these experiments were performed with primary AML stem cells isolated from a patient. […] In an identical experiment, the cells were also treated with a synthetic DP agonist, ZK118182 (100 nM). Apoptosis of cells (by annexin V staining) was measured using flow cytometry."}, "[3]": {"test_system": "normal HSCs (MSCV-GFP^+HSC)", "assay": "Effect on normal HSCs (MSCV-GFP+ HSC) treated ex vivo"}, "[4]": {"test_system": "imatinib-resistant BCR-ABL(GFP)+ cells", "assay": "Imatinib-resistant BCR-ABL(GFP)+ LSCs treated ex vivo", "assay_type": "cell-based, mouse", "settings": "splenocytes after imatinib i.p. 1 wk and 1 week washout; 25 nM, 24 h", "protocol": "FIG. 8 is a graph showing that imatinib-resistant BCR-ABL(GFP)+ cells are targeted by Δ^12-PGJ3. […] The mice were followed for the development of leukemia. Mice that developed leukemia were euthanized and spleens were used as the source of LSCs.\nGFP+ LSCs were analyzed by flow cytometry."}, "[5]": {"molecular_target": "T1, ligand-binding domain of human PPAPγ fused to yeast GAL4 DNA binding domain (Homo sapiens, UniProt P37231)", "T1 construct": "expressed in transfected cells; host or cells: HEK293T", "T1 sequence (P37231 238-503 limits assumed)": "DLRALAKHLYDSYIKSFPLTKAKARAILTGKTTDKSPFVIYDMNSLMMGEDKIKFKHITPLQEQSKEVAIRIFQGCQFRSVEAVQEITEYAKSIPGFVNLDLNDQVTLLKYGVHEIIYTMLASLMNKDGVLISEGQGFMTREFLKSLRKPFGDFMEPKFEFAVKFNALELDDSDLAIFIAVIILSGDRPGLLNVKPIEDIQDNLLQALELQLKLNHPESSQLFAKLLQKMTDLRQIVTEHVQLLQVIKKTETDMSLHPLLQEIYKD", "assay": "PPARγ reporter assay in HEK293T cells (GAL4 fusion, pGalRE-Luc)", "assay_type": "cell-based", "settings": "0.01 μM to 1.0 μM"}, "[6]": {"test_system": "BCR-ABL^+LSC transplanted mice", "assay": "Murine CML model: mice transplanted with BCR-ABL+ LSCs", "assay_type": "in vivo, mouse", "method": "Induction of CML using MIGR-BCR-ABL retrovirus: MIGR-BCR-ABL and control MSCV-GFP retroviruses were obtained. […] C57BL/6 mice were treated with 5-fluorouracil (5-FU; 150 mg/Kg, Sigma, St. Louis, Mo.) to enrich for cycling HSCs. On day four after treatment bone marrow cells were harvested and infected with MIGR-BCR-ABL or MSCV-GFP control virus overnight in IMDM media containing 5% FCS and supplemented with 2.5 ng/ml IL-3 and 15 ng/ml SCF (R&D Systems Minneapolis, Minn.). 0.5×10^6 transduced cells were transplanted by retro-orbital injection into C57BL/6 recipient mice that were preconditioned with 950 Rads of irradiation. In order to increase the number of CML and control mice, 17 days after transplant GFP^+ spleen cells were isolated by FACS and 1×10^5 GFP^+ cells were transplanted into irradiated (950 Rads) secondary C57BL/6 recipients. Two weeks after transplant, mice were treated as indicated with CyPGs and vehicle control. For ex-vivo experiments, Kit^+Sca1^+Lin^−GFP^+ cells were isolated from the bone marrow or spleen of transplanted mice by FACS. The sorted cells were cultured in Methocult media M3334 (Stem Cell Technologies Vancouver BC) M3334 supplemented with Shh, SCF, and BMP4 and treated with the indicated CyPGs and vehicle controls for indicated time periods. […] The hematopoietic colonies (colony forming cells in culture, CFC) were scored.\nTreatment of Mice with PGs: Mice with FV-induced erythroleukemia or MIGR-BCR-ABL induced CML were treated on the indicated days with CyPGs. Mice were treated with a daily intraperitoneal injection of Δ^12-PGJ3 (0.01-0.1 mg/kg), 15d-PGJ2 (0.1 mg/kg), or 9,10-dihydro-15d-PGJ2 (0.1 mg/kg) for 7 days. All three compounds were formulated with hydroxypropyl-β-cyclodextrin (30% w/v; Sigma; vehicle control)."}},
  "note": "Entries after “also recorded” stand apart in the source; their conditions may differ.",
  "data": [
    {"smiles": "CC/C=C\\C[C@H](O)C/C=C1/C(=O)C=C[C@@H]1C/C=C\\CCCC(=O)O", "note": "[Δ^12-PGJ3, Δ^12-prostaglandin J3]", "values": [
      {"measurement": "NF-κB activation, EMSA and Western blot of nuclear extracts", "setting": "NF-κB", "value": "lack of activation of NF-κB"},
      {"measurement": "cell death, cytospin with Wright Geimsa stain", "setting": "[1]; 100 nM, 12 hrs", "value": "death of blast-crisis CML cells"},
      {"measurement": "apoptosis (Annexin V+ cells)", "setting": "[1]; 6 and 12 hrs", "value": "induces apoptosis in BC-CML primary patient cells"},
      {"measurement": "MCL-1 expression", "setting": "MCL-1", "value": "decreases the expression MCL1"},
      {"measurement": "apoptosis of AML LSCs (Annexin V+ fraction of CD34+CD38−CD123+ cells)", "setting": "[2]; 100 nM, 6 h, patients #100810, #123009, #033107, #041909, #101308", "value": "targeted the LSCs in all these samples"},
      {"measurement": "apoptosis of primary human AML cells (Annexin V+)", "setting": "[2]; 100 nM, 6 and 12 hrs", "value": "induces apoptosis of primary human AML cells"},
      {"measurement": "apoptosis of primary AML cells from bone marrow of an AML patient (72% CD133+)", "setting": "[2]; 5, 50, 100 nM, 6 and 24 h, annexin V", "value": "effective even in human primary leukemia stem cells"},
      {"measurement": "effect on normal HSCs", "setting": "[3]; Kit+Sca1+Lin−GFP+ cells from MSCV-control mice, ex vivo 36 h", "value": "no adverse effects on HSCs or downstream progenitors; also recorded: did not affect the normal HSCs"},
      {"measurement": "viability of MSCV-HSC control cells", "setting": "[3]; antagonists/inhibitor 10 nM, Δ^12-PGJ3 25 nM, 36 h", "value": "not affected"},
      {"measurement": "targeting of imatinib-resistant GFP+ LSCs", "setting": "[4]", "value": "can even target LSCs that are resistant to imatinib treatment"},
      {"measurement": "PPARγ activation in reporter assay", "setting": "[5]", "value": "unable to activate PPARγ"},
      {"measurement": "splenomegaly", "setting": "[6]; 0.05 mg/kg for 1 week", "value": "completely alleviated splenomegaly"},
      {"measurement": "Kit+Sca1+GFP+ LSCs in the spleen", "setting": "[6]; 1 week treatment", "value": "decreased"},
      {"measurement": "Kit+Sca1+Lin−GFP+ LSCs in the bone marrow", "setting": "[6]; 1 week treatment", "value": "eradicated"},
      {"measurement": "leukocyte counts in peripheral blood", "setting": "[6]; 1 week treatment", "value": "significantly decreased the leukocyte counts"},
      {"measurement": "survival and relapse, comparison with imatinib", "setting": "[6]; Imatinib 75 mg/kg, Δ^12-PGJ3 0.025 mg/kg, 1 week", "value": "prolonged survival, but no relapse of leukemia"},
      {"measurement": "relapse after last dose", "setting": "[6]; intraperitoneal, five weeks post last dose", "value": "no relapse"},
      {"measurement": "survival", "setting": "[6]; vehicle mice died two weeks after transplantation", "value": "rescued all of the mice"}
    ]}
  ]
}
